In brackets after ≈: the same amount, converted by molar mass. Where a name gives a salt, the structure may show the parent alone. Read-outs that look alike come from different tables or passages of the source.
Assays:
[1] = system: Streptococcus faecalis ATCC 10541; test: Antibacterial activity, minimum growth inhibitory concentration by agar dilution method (SF); assay type: cell-based; conditions: Enterococcus faecalis
Experimental: (§1) The various compounds of formula (I) of Examples 1-26 were tested for antibacterial activity against 6 microorganisms. […]. In this table, the following symbols are used:
SF: Streptococcus faecalis ATCC 10541

[2] = system: Staphylococcus aureus ATCC 6538P; test: Antibacterial activity, minimum growth inhibitory concentration by agar dilution method (SA); assay type: cell-based; conditions: ATCC6538P
Experimental: as §1
SA: Staphylococcus aureus ATCC 6538P

Bacillus subtilis 10707 = test: Antibacterial activity, minimum growth inhibitory concentration by agar dilution method (BS); assay type: cell-based
Experimental: as §1
BS: Bacillus subtilis 10707

[3] = system: Proteus vulgaris ATCC 6897; test: Antibacterial activity, minimum growth inhibitory concentration by agar dilution method (PV); assay type: cell-based
Experimental: as §1
PV: Proteus vulgaris ATCC 6897

[4] = system: Klebsiella pneumoniae ATCC 10031; test: microbe, parasite or virus in culture; assay type: cell-based; conditions: ATCC10031, pH 7, read-out: MIC, Klebsiella pneumoniae (KP)
Source text: In this table, the following symbols are used:
KP: Klebsiella pneumoniae ATCC 10031

[5] = system: Shigella sonnei ATCC 9290; test: Antibacterial activity, minimum growth inhibitory concentration by agar dilution method (SS); assay type: cell-based
Experimental: as §1
SS: Shigella sonnei ATCC 9290

[6] = Acute toxicity in mice (LD50, Behrens Kerber's method); conditions: mouse, in vivo, ip; ddy mice, single intraperitoneal administration, 14 days observation
Experimental: (§2) The antitumour-activity and toxicity of various compounds of formula (I) were investigated as indicated below.
Each animal of the test group consisting of 5 ddy mice was administered intraperitoneally once with a test compound. […] The LD50 was determined by Behrens Kerber's method.

Sarcoma 180 solid tumour = test: Anti-tumour activity against Sarcoma 180 solid tumour in mice; assay type: in vivo; conditions: Mus musculus, sc, 168 h; Sarcoma 180 s.c. in ddy mice; into tail vein 24 hours after implantation; volume at 7 days; read-out: ED50 (dose reducing tumour volume to 50% of control)
Experimental: as §2
(1) Effect against Sarcoma 180 solid tumour cells
5×10^6 cells of Sarcoma 180 solid tumour were intraperitoneally implanted into ddy mice. 7 days later, ascites cells were sampled. The cells were washed once with a sterilized physiological solution of sodium chloride and were used to prepare a cell suspension containing 5×10^7 cells per ml. On each occasion, 0.1 ml of the cell suspension was subcutaneously implanted into the right arm pit of a male mouse (ddy strain; body weight 20±2 g). The test compound was dissolved in a physiological solution of sodium chloride with or without addition of Tween 80 and was administered into the tail vein of each mouse of a group consisting of 5 mice at a dose of 0.1-0.2 ml, 24 hours after the implantation of the tumour cells.
The anti-tumour activity was determined in the following manner. 7 days after the implantation, the major axis (a) and the minor axis (b) of the tumour were measured to calculate a value of "a×b^2 /2" which corresponds to the volume of the tumour. The anti-tumour activity was expressed by the ratio of the volume of the tumours (T) of the group of animals administered with the test compound to the corresponding volume of tumours (c) of the untreated animals.
(2) Determination of ED50
(The amount needed for reducing the volume of Sarcoma 180 solid tumours in mice to 50% on the basis of the corresponding volume of Sarcoma solid tumours in control untreated animals). On graph paper, T/C (the ratio of the volume of tumours of treated and control animals) was indicated by an arithmetic scale on the longitudinal axis and the administered amount of the test compound was indicated by a logarithmic scale on the lateral axis.
The relationship between the dose and T/C was shown by a straight line determined by the method of least squares, from which a dose corresponding to T/C of 0.5 was obtained.

peripheral leucocytes = test: Effect on the peripheral leucocytes number in Sarcoma 180 bearing mice; assay type: in vivo; conditions: Sarcoma 180 bearing ddy mice; intraperitoneal 24 hours after implantation; blood 4 days later
Experimental: as §2
(4) Effect on the peripheral leucocytes number
Sarcoma 180 solid tumour cells (5×10^6) were subcutaneously implanted into the right arm pit of each mouse (body weight 20±2 g) of a group consisting of 5 male mice (ddy strain). 24 hours after implantation, a test compound was intraperitoneally administered to each animal. 4 days later, blood (each 0.02 ml) was collected from the suborbital plexus vein of each tumour-carrying animal. The collected sample of the blood was dispersed in 9.98 ml of Cell-Kit Seven solution. One drop of saponin solution was added to the sample to dissolve erythrocytes, and then a microcell counter was used to measure the number of leucocytes. On a graph paper, the number of leucocytes was indicated on the y-axis by an arithmetic scale and the dose of the test compound was indicated on the x-axis by a logarithmic scale. The relationship between the number of peripheral leucocytes and the dosage of the test compound was plotted and the dosage corresponding to 4000 peripheral leucocytes/mm^3 (about 1/2 the number of leucocytes of normal mice) was obtained. This value is denoted in Table 5 by WBC4000.

[7] = ATCC10541, pH 7, read-out: MIC, Streptococcus faecalis (SF)
[8] = pH 7, read-out: MIC, Staphylococcus aureus (SA)
[9] = Bacillus subtilis, 10707, pH 7, read-out: MIC, Bacillus subtilis (BS)
[10] = ATCC6897, pH 7, read-out: MIC, Proteus vulgaris (PV)
[11] = ATCC9290, pH 7, read-out: MIC, Shigella sonnei (SS)

SMILES | MIC [1, 7] [µg/mL] | MIC [2, 8] [µg/mL] | MIC (Bacillus subtilis 10707; [9]) [µg/mL] | MIC [3, 10] [µg/mL] | MIC [4] [µg/mL] | MIC [5, 11] [µg/mL] | MIC ([1]; ATCC10541, agar dilution method, pH 7.0, read-out: MIC, Streptococcus faecalis (SF)) [µg/mL] | MIC ([2]; agar dilution method, pH 7.0, read-out: MIC, Staphylococcus aureus (SA)) [µg/mL] | MIC (Bacillus subtilis 10707; Bacillus subtilis, 10707, agar dilution method, pH 7.0, read-out: MIC, Bacillus subtilis (BS)) [µg/mL] | MIC ([3]; ATCC6897, agar dilution method, pH 7.0, read-out: MIC, Proteus vulgaris (PV)) [µg/mL] | MIC ([5]; ATCC9290, agar dilution method, pH 7.0, read-out: MIC, Shigella sonnei (SS)) [µg/mL] | LD50 at 336 h [6] [mg/kg] | ED50 (Sarcoma 180 solid tumour) [mg/kg] | WBC4000 (dosage corresponding to 4000 peripheral leucocytes/mm^3) (peripheral leucocytes) [mg/kg]
CCOC(=O)CNC(=O)[C@H](CSSCCNC1=C(C)C(=O)C2=C(C1=O)[C@H](COC(N)=O)[C@@]1(O)[C@@H]3[C@H](CN21)N3C)NC(=O)CC[C@H](N)C(=O)O (some centres unmarked) [Compound 26] | 13 (≈ 17.9 µM) | 6.3 (≈ 8.66 µM) | 1.6 (≈ 2.2 µM) | 13 (≈ 17.9 µM) | 25 (≈ 34.3 µM) | – | – | – | – | – | – | – | – | –
CC1=C(NCCSSC[C@H](NC(=O)CC[C@H](N)C(=O)O)C(=O)NCC(=O)O)C(=O)C2=C(C1=O)N1C[C@H]3[C@H](N3C)[C@]1(O)[C@H]2COC(N)=O (stereo partly drawn) [Compound 23, 7-N-[2-[(γ-L-glutamyl-L-cysteinylglycin-S-yl)thio]ethyl]-mitomycin D potassium salt] | 6.3 | 6.3 | 6.3 | 13 | – | – | – | – | – | – | – | – | – | –
CO[C@@]12[C@H](COC(N)=O)C3=C(C(=O)C(C)=C(NCCSSc4c(F)c(F)cc(F)c4F)C3=O)N1C[C@@H]1N[C@@H]12 [Compound 13, 7-N-[2-(2,3,5,6-Tetrafluorophenyldithio)ethyl]mitomycin C] | 0.31 (≈ 0.54 µM) | 0.16 (≈ 0.278 µM) | 0.02 (≈ 0.0348 µM) | 5 (≈ 8.7 µM) | 0.63 (≈ 1.1 µM) | 10 (≈ 17.4 µM) | – | – | – | – | – | – | – | –
CO[C@@]12[C@H](COC(N)=O)C3=C(C(=O)C(C)=C(N)C3=O)N1C[C@@H]1N[C@@H]12 [MM-C, Mitomycin C, reference compound] | – | – | – | – | – | – | 0.04 (≈ 0.12 µM) | 0.02 (≈ 0.0598 µM) | 0.01 (≈ 0.0299 µM) | 0.04 (≈ 0.12 µM) | 1.3 (≈ 3.89 µM) | – | – | –
CO[C@@]12[C@H](COC(N)=O)C3=C(C(=O)C(C)=C(NCCSSc4ccc(C)cc4)C3=O)N1C[C@@H]1N[C@@H]12 [Compound 10, 7-N-[2-(4-Methylphenyldithio)ethyl]mitomycin C] | 0.08 (≈ 0.155 µM) | 0.04 (≈ 0.0774 µM) | 0.02 (≈ 0.0387 µM) | 2.5 (≈ 4.84 µM) | 1.3 (≈ 2.52 µM) | > 20 | – | – | – | – | – | – | – | –
CO[C@@]12[C@H](COC(N)=O)C3=C(C(=O)C(C)=C(NCCSSc4ccccc4N)C3=O)N1C[C@@H]1N[C@@H]12 [Compound 2, 7-N-[2-(2-Aminophenyldithio)ethyl]mitomycin C] | < 0.02 | 0.04 (≈ 0.0773 µM) | < 0.02 | 2.5 (≈ 4.83 µM) | 0.31 (≈ 0.599 µM) | 20 (≈ 38.6 µM) | – | – | – | – | – | – | – | –
CO[C@@]12[C@H](COC(N)=O)C3=C(C(=O)C(C)=C(NCCSSCCC(N)C(=O)O)C3=O)N1C[C@@H]1N[C@@H]12 (mixture of isomers) [Compound 24, 7-N-[2-[(DL-Homocystein-S-yl)thio]ethyl]mitomycin C] | 0.63 | 0.08 | < 0.02 | 1.3 | 0.31 | 40 | – | – | – | – | – | – | – | –
CO[C@@]12[C@H](COC(N)=O)C3=C(C(=O)C(C)=C(NCCSSC(C)(C)[C@@H](N)C(=O)O)C3=O)N1C[C@@H]1N[C@@H]12 [Compound 28] | – | – | – | – | – | – | – | – | – | – | – | 26.3 | 8.2 | 16.3
CCOC(=O)CNC(=O)[C@H](CSSCCNC1=C(C)C(=O)C2=C(C1=O)[C@@H](COC(N)=O)[C@@]1(OC)[C@H]3N[C@H]3CN21)NC(=O)CC[C@H](N)C(=O)O [Compound 25, 7-N-[2-[(γ-L-Glutamyl-L-cysteinyl-ethyl-glycinat-S-yl)thio]ethyl]mitomycin C] | 0.63 (≈ 0.866 µM) | 0.16 (≈ 0.22 µM) | 0.04 (≈ 0.055 µM) | 10 (≈ 13.7 µM) | 2.5 (≈ 3.43 µM) | – | – | – | – | – | – | – | – | –
CO[C@@]12[C@H](COC(N)=O)C3=C(C(=O)C(C)=C(NCCSSC[C@H](NC(C)=O)C(=O)O)C3=O)N1C[C@@H]1N[C@@H]12 [Compound 19, 7-N-[2-[(N-Acetyl-L-cystein-S-yl)thio]ethyl]mitomycin C potassium salt] | 1.3 | 0.63 | 0.08 | 2.5 | 0.63 | > 20 | – | – | – | – | – | – | – | –
CO[C@@]12[C@H](COC(N)=O)C3=C(C(=O)C(C)=C(NCCSSc4ccc([N+](=O)[O-])cc4)C3=O)N1C[C@@H]1N[C@@H]12 [Compound 8, 7-N-[2-(4-Nitrophenyldithio)ethyl]mitomycin C] | 0.16 (≈ 0.292 µM) | 0.16 (≈ 0.292 µM) | 0.08 (≈ 0.146 µM) | 2.5 (≈ 4.57 µM) | 1.3 (≈ 2.37 µM) | 5 (≈ 9.13 µM) | – | – | – | – | – | – | – | –
CO[C@@]12[C@H](COC(N)=O)C3=C(C(=O)C(C)=C(NCCSSC[C@H](NC(=O)CC[C@H](N)C(=O)O)C(=O)NCC(=O)O)C3=O)N1C[C@@H]1N[C@@H]12 [Compound 22, 7-N-[2-[(γ-L-Glutamyl-L-cysteinylglycin-S-yl)thio]ethyl]mitomycin C potassium salt] | 1.3 | 0.31 | 0.08 | 2.5 | 0.63 | > 20 | – | – | – | – | – | – | – | –
CO[C@@]12[C@H](COC(N)=O)C3=C(C(=O)C(C)=C(NCCSSc4ccc(NC(C)=O)cc4)C3=O)N1C[C@H]1[C@@H]2N1C (some centres unmarked) [Compound 6, 7-N-[2-(4-Acetamidophenyldithio)ethyl]porfiromycin] | 0.63 (≈ 1.1 µM) | 1.3 (≈ 2.27 µM) | 0.08 (≈ 0.139 µM) | – | > 20 | – | – | – | – | – | – | – | – | –
CO[C@@]12[C@H](COC(N)=O)C3=C(C(=O)C(C)=C(NCCSSc4ccccc4)C3=O)N1C[C@@H]1N[C@@H]12 [Compound 1, 7-N-[2-(Phenyldithio)ethyl]mitomycin C] | 0.02 (≈ 0.0398 µM) | 0.02 (≈ 0.0398 µM) | < 0.01 | 1.3 (≈ 2.59 µM) | 0.31 (≈ 0.617 µM) | 20 (≈ 39.8 µM) | – | – | – | – | – | – | – | –
